# Test results: US12466829B2, “Spirocyclic piperidine melanocortin subtype-2 receptor (MC2R) antagonists and uses thereof” (Crinetics Pharmaceuticals, Inc., priority 2019, dated 2025)
# pKi: −log10 of the molar value.
# Biological target: T1, hMC2 receptor (Homo sapiens, UniProt Q01718)
# T1 construct: host or cells: CRE-bla-CHO-K1 cells
# Assay: hMC2 membrane binding assay ([125I]ACTH (1-39) Tyr23, SPA)
# Settings: crude membranes of CRE-bla-CHO-K1 cells expressing hMC2 receptor and hMRAP; 0.2 nM [125I]ACTH (1-39) Tyr23; 1.5 hours at room temperature; read-out: MC2R binding potency
# Description: Crude membrane fractions are prepared from CRE-bla-CHO-K1 cells stably expressing hMC2 receptor and hMRAP accessory protein (Thermo Fisher). The cells are grown to 85-100% confluence on standard tissue culture dishes in GlutaMax DMEM growth media (Gibco) with following additives: 10% dialyzed FBS (Gemini), 0.1 mM NEAA (Gibco), 25 mM HEPES (Gibco), 5 μg/mL blasticidin (Goldbio), 100 μg/mL zeocin (Invitrogen), 600 μg/mL hygromycin (Goldbio). To prepare membranes, cells are scraped and collected in 1× Dulbecco's phosphate buffered saline (Corning) and then pelleted at 1000 RPM's. The cell pellet is reconstituted in membrane preparation buffer (20 mM HEPES, 6 mM MgCl2 and 1 mM EGTA, protease inhibitor tablets (Pierce) adjusted to pH 7.4), homogenized using a dounce homogenizer, and the resulting membrane fraction is pelleted by centrifugation at 12,000 RPM's. The membrane pellet is resuspended in membrane preparation buffer, snap freezed and stored at −80° C. for later use.
# The hMC2 membrane binding assay utilizes the following components: radiolabel [^125I]ACTH (1-39) Tyr23 (PerkinElmer), wheatgerm agglutinin coated PVT SPA beads (PerkinElmer), crude hMC2R membranes, and compounds. Briefly hMC2R membranes are incubated with SPA beads in binding assay buffer (50 mM HEPES, 5 mM MgCl2, 1 mM CaCl2), 0.2% BSA, protease inhibitor tablets (Pierce) adjusted to pH7.4) prior to assay initiation. […] Assay plates are read using a Top Count NXT and Ki values for compounds are determined using a GraphPad Prism 6 non-linear regression analysis.
# T1 sequence (Q01718 whole entry): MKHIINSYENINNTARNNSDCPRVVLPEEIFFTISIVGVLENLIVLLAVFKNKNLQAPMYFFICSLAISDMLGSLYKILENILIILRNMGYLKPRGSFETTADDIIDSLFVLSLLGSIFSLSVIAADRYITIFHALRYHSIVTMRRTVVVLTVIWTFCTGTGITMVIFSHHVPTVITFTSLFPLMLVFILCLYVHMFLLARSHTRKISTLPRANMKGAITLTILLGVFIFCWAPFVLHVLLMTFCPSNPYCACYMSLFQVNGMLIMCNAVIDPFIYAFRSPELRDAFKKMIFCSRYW
# T1 sequence (Q8TCY5 whole entry partner): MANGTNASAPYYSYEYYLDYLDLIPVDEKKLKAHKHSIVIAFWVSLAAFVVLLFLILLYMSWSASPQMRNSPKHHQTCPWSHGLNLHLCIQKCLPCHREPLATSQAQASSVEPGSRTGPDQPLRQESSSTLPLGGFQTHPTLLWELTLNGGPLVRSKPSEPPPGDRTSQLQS
row,SMILES,pKi
1,"CCOc1ncccc1-c1ccc2c(c1)N(C[C@H](C)N)CC21CCN(c2ccc(C(F)(F)F)cc2C#N)CC1 [1-14, 2-{1-[(2S)-2-aminopropyl]-6-(2-ethoxypyridin-3-yl)-1,2-dihydrospiro[indole-3,4′-piperidin]-1′-yl}-5-(trifluoromethyl)benzonitrile]",7.00 to 8.00
2,"CCOc1ncccc1-c1ccc2c(n1)N(C(=O)NCCN)CC21CCN(c2ccc(C(F)(F)F)cc2C#N)CC1 [1-55, N-(2-aminoethyl)-1-[2-cyano-4-(trifluoromethyl)phenyl]-6′-(2-ethoxypyridin-3-yl)-1′,2′-dihydrospiro[piperidine-4,3′-pyrrolo[2,3-b]pyridine]-1′-carboxamide]",> 8.00
3,"CCOc1ncccc1-c1ccc2c(n1)N(CCNC)C(=O)C21CCN(c2ccc(C(F)(F)F)cc2C#N)CC1 [1-63, 2-[6′-(2-ethoxypyridin-3-yl)-1′-[2-(methylamino)ethyl]-2′-oxo-1′,2′-dihydrospiro[piperidine-4,3′-pyrrolo[2,3-b]pyridin]-1-yl]-5-(trifluoromethyl)benzonitrile]",> 8.00
4,"CCOc1ncccc1-c1ccc2c(n1)N(C(=O)[C@H](C)N)CC21CCN(c2ccc(C(F)(F)F)cc2C#N)CC1 [1-48, 2-{1′-[(2S)-2-aminopropanoyl]-6′-(2-ethoxypyridin-3-yl)-1′,2′-dihydrospiro[piperidine-4,3′-pyrrolo[2,3-b]pyridin]-1-yl}-5-(trifluoromethyl)benzonitrile]",> 8.00
5,"CCOc1ncccc1-c1ccc2c(n1)N(C(=O)NCCNC)CC21CCN(c2ccc(C(F)(F)F)cc2C#N)CC1 [1-59, 1-[2-cyano-4-(trifluoromethyl)phenyl]-6′-(2-ethoxypyridin-3-yl)-N-[2-(methylamino)ethyl]-1′,2′-dihydrospiro[piperidine-4,3′-pyrrolo[2,3-b]pyridine]-1′-carboxamide]",> 8.00
6,"CCOc1ccc(N2CCC3(CC2)CN(C(=O)CCN)c2cc(-c4cccnc4OCC)ccc23)c(C(F)(F)F)n1 [1-23, 3-amino-1-{1′-[6-ethoxy-2-(trifluoromethyl)pyridin-3-yl]-6-(2-ethoxypyridin-3-yl)-1,2-dihydrospiro[indole-3,4′-piperidin]-1-yl}propan-1-one]",7.00 to 8.00
7,"CCOc1ncccc1-c1ccc2c(c1)N(CCNC)C(=O)NC21CCN(c2ccc(C(F)(F)F)cc2C#N)CC1 [1-65, 2-[7′-(2-ethoxypyridin-3-yl)-1′-[2-(methylamino)ethyl]-2′-oxo-2′,3′-dihydro-1′H-spiro[piperidine-4,4′-quinazolin]-1-yl]-5-(trifluoromethyl)benzonitrile]",> 8.00
8,"CCOc1ncccc1-c1ccc2c(c1)N(C(=O)CCN)CC21CCN(c2ccc(F)c(C(F)(F)F)n2)CC1 [1-20, 3-amino-1-[6-(2-ethoxypyridin-3-yl)-1′-[5-fluoro-6-(trifluoromethyl)pyridin-2-yl]-1,2-dihydrospiro[indole-3,4′-piperidin]-1-yl]propan-1-one]",5.00 to 6.00
9,"CCOc1ncccc1-c1ccc2c(c1)N(C(=O)CCN)CC21CCN(c2cc(C(F)(F)F)cc(C#N)n2)CC1 [1-24, 6-[1-(3-aminopropanoyl)-6-(2-ethoxypyridin-3-yl)-1,2-dihydrospiro[indole-3,4′-piperidin]-1′-yl]-4-(trifluoromethyl)pyridine-2-carbonitrile]",5.00 to 6.00
10,"CCOc1ncccc1-c1ccc2c(c1)N(C(=O)CCN)CC21CCN(c2cc(C#N)cc(C(F)(F)F)n2)CC1 [1-19, 2-[1-(3-aminopropanoyl)-6-(2-ethoxypyridin-3-yl)-1,2-dihydrospiro[indole-3,4′-piperidin]-1′-yl]-6-(trifluoromethyl)pyridine-4-carbonitrile]",5.00 to 6.00
11,"CCOc1ncccc1-c1ccc2c(n1)N(C(=O)N[C@@H]1CCNC1)CC21CCN(c2ccc(C(F)(F)F)cc2C#N)CC1 [1-57, 1-[2-cyano-4-(trifluoromethyl)phenyl]-6′-(2-ethoxypyridin-3-yl)-N-[(3R)-pyrrolidin-3-yl]-1′,2′-dihydrospiro[piperidine-4,3′-pyrrolo[2,3-b]pyridine]-1′-carboxamide]",7.00 to 8.00
12,"CCOc1ncccc1-c1ccc2c(c1)N(CCN)C(=O)C21CCN(c2ccc(C(F)(F)F)cc2C#N)CC1 [1-16, 2-[1-(2-aminoethyl)-6-(2-ethoxypyridin-3-yl)-2-oxo-1,2-dihydrospiro[indole-3,4′-piperidin]-1′-yl]-5-(trifluoromethyl)benzonitrile]",> 8.00
13,"CCOc1ncccc1-c1ccc2c(c1)N(CCN)C(=O)CC21CCN(c2ccc(C(F)(F)F)cc2C#N)CC1 [1-66, 2-[1′-(2-aminoethyl)-7′-(2-ethoxypyridin-3-yl)-2′-oxo-2′,3′-dihydro-1′H-spiro[piperidine-4,4′-quinolin]-1-yl]-5-(trifluoromethyl)benzonitrile]",7.00 to 8.00
14,"CCOc1ncccc1-c1ccc2c(c1)N(C(=O)C[C@H](C)N)CC21CCN(c2ccc(C(F)(F)F)cc2C#N)CC1 [1-5, 2-{1-[(3 S)-3-aminobutanoyl]-6-(2-ethoxypyridin-3-yl)-1,2-dihydrospiro[indole-3,4′-piperidin]-1′-yl}-5-(trifluoromethyl)benzonitrile]",7.00 to 8.00
15,"CCOc1ncccc1-c1ccc2c(n1)N(CCN)C(=O)C21CCN(c2ccc(C(F)(F)F)cc2C#N)CC1 [1-60, 2-[1′-(2-aminoethyl)-6′-(2-ethoxypyridin-3-yl)-2′-oxo-1′,2′-dihydrospiro[piperidine-4,3′-pyrrolo[2,3-b]pyridin]-1-yl]-5-(trifluoromethyl)benzonitrile]",> 8.00
16,"CCOc1ncccc1-c1ccc2c(c1)N(C(=O)CCN)CC21CCN(c2ccc(Cl)cc2C#N)CC1 [1-34, 2-[1-(3-aminopropanoyl)-6-(2-ethoxypyridin-3-yl)-1,2-dihydrospiro[indole-3,4′-piperidin]-1′-yl]-5-chlorobenzonitrile]",7.00 to 8.00
17,"CCOc1ncccc1-c1ccc2c(n1)N(C(=O)CCNC)CC21CCN(c2ccc(C(F)(F)F)cc2C#N)CC1 [1-50, 2-[6′-(2-ethoxypyridin-3-yl)-1′-[3-(methylamino)propanoyl]-1′,2′-dihydrospiro[piperidine-4,3′-pyrrolo[2,3-b]pyridin]-1-yl]-5-(trifluoromethyl)benzonitrile]",> 8.00
18,"CCOc1ncccc1-c1ccc2c(n1)N(C(=O)CCN)CC21CCN(c2ccc(C(F)(F)F)cc2C#N)CC1 [1-28, 2-[1′-(3-aminopropanoyl)-6′-(2-ethoxypyridin-3-yl)-1′,2′-dihydrospiro[piperidine-4,3′-pyrrolo[2,3-b]pyridin]-1-yl]-5-(trifluoromethyl)benzonitrile]",> 8.00
19,"CCOc1ncccc1-c1ccc2c(n1)N(C(=O)[C@@H](C)N)CC21CCN(c2ccc(C(F)(F)F)cc2C#N)CC1 [1-47, 2-{1′-[(2R)-2-aminopropanoyl]-6′-(2-ethoxypyridin-3-yl)-1′,2′-dihydrospiro[piperidine-4,3′-pyrrolo[2,3-b]pyridin]-1-yl}-5-(trifluoromethyl)benzonitrile]",7.00 to 8.00
20,"CCOc1ncccc1-c1ccc2c(n1)N(C[C@@H](C)N)C(=O)C21CCN(c2ccc(C(F)(F)F)cc2C#N)CC1 [1-61, 2-{1′-[(2R)-2-aminopropyl]-6′-(2-ethoxypyridin-3-yl)-2′-oxo-1′,2′-dihydrospiro[piperidine-4,3′-pyrrolo[2,3-b]pyridin]-1-yl}-5-(trifluoromethyl)benzonitrile]",> 8.00
21,"CCOc1ncccc1-c1ccc2c(n1)N(C[C@@H](C)N)CC21CCN(c2ccc(C(F)(F)F)cc2C#N)CC1 [1-46, 2-{1′-[(2R)-2-aminopropyl]-6′-(2-ethoxypyridin-3-yl)-1′,2′-dihydrospiro[piperidine-4,3′-pyrrolo[2,3-b]pyridin]-1-yl}-5-(trifluoromethyl)benzonitrile]",> 8.00
22,"CCOc1ncccc1-c1ccc2c(c1)N(C(=O)CCN)C(C)C21CCN(c2ccc(C(F)(F)F)cc2C#N)CC1 (stereo not shown) [1-26, 2-[1-(3-aminopropanoyl)-6-(2-ethoxypyridin-3-yl)-2-methyl-1,2-dihydrospiro[indole-3,4′-piperidin]-1′-yl]-5-(trifluoromethyl)benzonitrile]",7.00 to 8.00
23,"CCOc1ncccc1-c1ccc2c(c1)N(C(=O)[C@H]1CCNC1)CC21CCN(c2ccc(C(F)(F)F)cc2C#N)CC1 [1-10, 2-[6-(2-ethoxypyridin-3-yl)-1-[(3S)-pyrrolidine-3-carbonyl]-1,2-dihydrospiro[indole-3,4′-piperidin]-1′-yl]-5-(trifluoromethyl)benzonitrile]",7.00 to 8.00
24,"CCOc1ncccc1-c1ccc2c(c1)N(C(=O)CCN)CC21CCN(c2cc(C#N)cc(C(F)(F)F)c2)CC1 [1-8, 3-[1-(3-aminopropanoyl)-6-(2-ethoxypyridin-3-yl)-1,2-dihydrospiro[indole-3,4′-piperidin]-1′-yl]-5-(trifluoromethyl)benzonitrile]",5.00 to 6.00
25,"CCOc1ncccc1-c1ccc2c(c1)N(C(=O)[C@@H]1CCNC1)CC21CCN(c2ccc(C(F)(F)F)cc2C#N)CC1 [1-9, 2-[6-(2-ethoxypyridin-3-yl)-1-[(3R)-pyrrolidine-3-carbonyl]-1,2-dihydrospiro[indole-3,4′-piperidin]-1′-yl]-5-(trifluoromethyl)benzonitrile]",7.00 to 8.00
